Experimental data from patent US20250312462A1, “PAK1 DEGRADERS AND METHODS OF USE THEREOF” (INSTITUTE FOR CANCER RESEARCH D/B/A THE RESEARCH INSTITUTE …, priority 2022, published 2025).

Columns and labels:
Assay in all cases: KINOMEscan
Conditions in all cases: read-out: Percent Control
GSK3A = GSK3A (Homo sapiens, UniProt P49840)
Method: (§1) The kinase engagement assay (KINOMEscan®) was performed by DiscoverX assessing binding abilities toward a set of kinases.

KIT-autoinhibited = KIT-autoinhibited (Homo sapiens, UniProt P10721)
Method: as §1

BRSK2 = BRSK2 (Homo sapiens, UniProt Q8IWQ3)
Method: as §1

JNK1 = JNK1 (Homo sapiens, UniProt P45983)
Method: as §1

RAF1 = RAF1 (Homo sapiens, UniProt P04049)
Method: as §1

WEE2 = WEE2 (Homo sapiens, UniProt P0C1S8)
Method: as §1

PRKCI = PRKCI (Homo sapiens, UniProt P41743)
Method: as §1

EGFR(L858R, T790M) = EGFR(L858R, T790M) (Homo sapiens, UniProt P00533, L858R/T790M)
Method: as §1

[1] = molecular target: ABL1(E255K)-phosphorylated (Homo sapiens, UniProt P00519, E255K)
Method: as §1

PAK3 = PAK3 (Homo sapiens, UniProt O75914)
Method: as §1

PIK3CA(H1047L) = PIK3CA(H1047L) (Homo sapiens, UniProt P42336, H1047L)
PIK3CA(H1047L), sequence (P42336 whole entry H1047L): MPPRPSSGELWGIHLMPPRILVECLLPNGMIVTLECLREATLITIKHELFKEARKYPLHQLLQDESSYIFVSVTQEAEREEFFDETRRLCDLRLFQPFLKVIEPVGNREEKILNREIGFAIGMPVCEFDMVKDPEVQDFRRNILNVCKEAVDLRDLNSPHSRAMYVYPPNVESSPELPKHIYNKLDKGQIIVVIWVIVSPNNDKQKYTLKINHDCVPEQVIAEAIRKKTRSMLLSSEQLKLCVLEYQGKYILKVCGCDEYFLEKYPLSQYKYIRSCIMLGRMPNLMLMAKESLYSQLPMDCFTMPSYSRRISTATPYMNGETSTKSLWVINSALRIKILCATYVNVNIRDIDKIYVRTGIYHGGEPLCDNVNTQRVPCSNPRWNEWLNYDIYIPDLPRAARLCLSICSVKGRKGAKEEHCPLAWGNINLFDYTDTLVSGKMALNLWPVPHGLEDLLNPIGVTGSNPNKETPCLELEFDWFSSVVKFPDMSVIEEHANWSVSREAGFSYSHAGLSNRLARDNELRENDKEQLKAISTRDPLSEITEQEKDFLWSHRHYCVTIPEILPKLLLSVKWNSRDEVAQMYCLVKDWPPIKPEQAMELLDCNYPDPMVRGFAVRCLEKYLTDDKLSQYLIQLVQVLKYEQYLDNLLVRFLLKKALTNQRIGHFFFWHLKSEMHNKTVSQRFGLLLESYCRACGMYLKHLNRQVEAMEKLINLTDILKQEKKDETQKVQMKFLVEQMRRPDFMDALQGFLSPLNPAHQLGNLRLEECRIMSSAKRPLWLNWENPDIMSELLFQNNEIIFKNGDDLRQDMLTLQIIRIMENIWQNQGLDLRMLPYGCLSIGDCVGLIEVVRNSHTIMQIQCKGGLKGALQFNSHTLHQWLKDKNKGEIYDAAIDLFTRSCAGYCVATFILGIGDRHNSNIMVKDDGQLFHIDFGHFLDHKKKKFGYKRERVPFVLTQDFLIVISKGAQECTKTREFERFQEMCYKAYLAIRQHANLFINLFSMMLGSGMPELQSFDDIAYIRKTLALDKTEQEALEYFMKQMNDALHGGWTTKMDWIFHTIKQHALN
Method: as §1

MKNK2 = MKNK2 (Homo sapiens, UniProt Q9HBH9)
Method: as §1

CDKL5 = CDKL5 (Homo sapiens, UniProt O76039)
Method: as §1

CAMK2G = CAMK2G (Homo sapiens, UniProt Q13555)
CAMK2G, sequence (Q13555 whole entry): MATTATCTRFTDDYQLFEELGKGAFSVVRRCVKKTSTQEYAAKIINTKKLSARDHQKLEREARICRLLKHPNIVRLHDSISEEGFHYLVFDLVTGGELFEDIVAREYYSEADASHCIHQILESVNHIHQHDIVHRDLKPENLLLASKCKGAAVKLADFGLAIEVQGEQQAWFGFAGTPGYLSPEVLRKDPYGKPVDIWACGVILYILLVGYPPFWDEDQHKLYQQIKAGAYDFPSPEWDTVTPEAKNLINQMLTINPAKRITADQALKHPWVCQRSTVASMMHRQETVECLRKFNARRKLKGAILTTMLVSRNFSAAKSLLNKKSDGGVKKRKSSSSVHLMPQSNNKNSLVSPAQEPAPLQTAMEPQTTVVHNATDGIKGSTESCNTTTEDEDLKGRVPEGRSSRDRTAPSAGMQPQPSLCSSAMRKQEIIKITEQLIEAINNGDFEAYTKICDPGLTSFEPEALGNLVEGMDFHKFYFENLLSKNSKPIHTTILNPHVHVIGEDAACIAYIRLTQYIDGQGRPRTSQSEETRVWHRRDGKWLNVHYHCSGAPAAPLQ
Method: as §1

ALK(C1156Y) = ALK(C1156Y) (Homo sapiens, UniProt Q9UM73, C1156Y)
ALK(C1156Y), sequence (Q9UM73 19-1620 C1156Y): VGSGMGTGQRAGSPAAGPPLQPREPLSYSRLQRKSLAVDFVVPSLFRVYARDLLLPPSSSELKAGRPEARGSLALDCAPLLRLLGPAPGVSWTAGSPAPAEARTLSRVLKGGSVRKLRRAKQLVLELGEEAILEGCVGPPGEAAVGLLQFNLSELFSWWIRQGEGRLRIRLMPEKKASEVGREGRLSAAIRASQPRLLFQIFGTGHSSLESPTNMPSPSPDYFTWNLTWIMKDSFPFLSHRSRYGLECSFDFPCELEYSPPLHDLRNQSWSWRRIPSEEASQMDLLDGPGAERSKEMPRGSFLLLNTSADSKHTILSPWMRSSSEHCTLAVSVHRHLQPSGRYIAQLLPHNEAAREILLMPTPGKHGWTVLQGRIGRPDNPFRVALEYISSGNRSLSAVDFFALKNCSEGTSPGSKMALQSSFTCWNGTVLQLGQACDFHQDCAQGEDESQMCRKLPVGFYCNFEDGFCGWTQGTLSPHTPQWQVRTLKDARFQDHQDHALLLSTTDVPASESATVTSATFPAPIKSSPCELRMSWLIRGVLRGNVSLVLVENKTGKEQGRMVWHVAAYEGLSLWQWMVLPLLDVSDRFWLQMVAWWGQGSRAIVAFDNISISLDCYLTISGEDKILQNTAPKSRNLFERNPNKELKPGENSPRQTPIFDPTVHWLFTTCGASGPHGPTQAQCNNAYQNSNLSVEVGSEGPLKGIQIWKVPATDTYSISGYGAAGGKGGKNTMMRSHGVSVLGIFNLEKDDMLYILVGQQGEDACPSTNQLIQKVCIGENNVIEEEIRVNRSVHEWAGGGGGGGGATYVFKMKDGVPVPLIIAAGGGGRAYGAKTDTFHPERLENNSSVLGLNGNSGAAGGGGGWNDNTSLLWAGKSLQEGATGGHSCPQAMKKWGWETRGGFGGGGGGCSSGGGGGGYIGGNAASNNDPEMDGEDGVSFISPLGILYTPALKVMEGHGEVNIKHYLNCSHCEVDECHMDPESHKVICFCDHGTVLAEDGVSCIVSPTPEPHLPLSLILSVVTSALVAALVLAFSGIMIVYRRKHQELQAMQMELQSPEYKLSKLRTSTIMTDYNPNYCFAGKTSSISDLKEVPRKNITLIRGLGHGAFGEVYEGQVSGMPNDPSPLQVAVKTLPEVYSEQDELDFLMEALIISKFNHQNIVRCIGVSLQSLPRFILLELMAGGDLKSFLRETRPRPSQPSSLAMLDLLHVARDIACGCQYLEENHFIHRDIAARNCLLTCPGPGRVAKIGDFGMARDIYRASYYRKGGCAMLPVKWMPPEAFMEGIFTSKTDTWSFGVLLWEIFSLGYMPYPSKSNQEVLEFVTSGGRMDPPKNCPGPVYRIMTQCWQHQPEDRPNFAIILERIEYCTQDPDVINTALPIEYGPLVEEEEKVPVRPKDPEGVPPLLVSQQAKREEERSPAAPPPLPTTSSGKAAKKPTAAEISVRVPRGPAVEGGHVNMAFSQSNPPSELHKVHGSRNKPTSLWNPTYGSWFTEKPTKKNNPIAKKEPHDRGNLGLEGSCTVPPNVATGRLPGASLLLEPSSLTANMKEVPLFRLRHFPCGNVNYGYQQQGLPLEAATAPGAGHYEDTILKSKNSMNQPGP
Method: as §1

LZK = LZK (Homo sapiens, UniProt O43283)
Method: as §1

FLT3 = FLT3 (Homo sapiens, UniProt P36888)
Method: as §1

PLK1 = PLK1 (Homo sapiens, UniProt P53350)
Method: as §1

MRCKB = MRCKB (Homo sapiens, UniProt Q9Y5S2)
Method: as §1

MAP3K2 = MAP3K2 (Homo sapiens, UniProt Q9Y2U5)
Method: as §1

EGFR(L858R) = EGFR(L858R) (Homo sapiens, UniProt P00533, L858R)
Method: as §1

HASPIN = HASPIN (Homo sapiens, UniProt Q8TF76)
Method: as §1

[2] = molecular target: ABL1(Q252H)-nonphosphorylated (Homo sapiens, UniProt P00519, Q252H)
Method: as §1

FGFR4 = FGFR4 (Homo sapiens, UniProt P22455)
Method: as §1

PRKG2 = PRKG2 (Homo sapiens, UniProt Q13237)
Method: as §1

RIOK3 = RIOK3 (Homo sapiens, UniProt O14730)
RIOK3, sequence (O14730 whole entry): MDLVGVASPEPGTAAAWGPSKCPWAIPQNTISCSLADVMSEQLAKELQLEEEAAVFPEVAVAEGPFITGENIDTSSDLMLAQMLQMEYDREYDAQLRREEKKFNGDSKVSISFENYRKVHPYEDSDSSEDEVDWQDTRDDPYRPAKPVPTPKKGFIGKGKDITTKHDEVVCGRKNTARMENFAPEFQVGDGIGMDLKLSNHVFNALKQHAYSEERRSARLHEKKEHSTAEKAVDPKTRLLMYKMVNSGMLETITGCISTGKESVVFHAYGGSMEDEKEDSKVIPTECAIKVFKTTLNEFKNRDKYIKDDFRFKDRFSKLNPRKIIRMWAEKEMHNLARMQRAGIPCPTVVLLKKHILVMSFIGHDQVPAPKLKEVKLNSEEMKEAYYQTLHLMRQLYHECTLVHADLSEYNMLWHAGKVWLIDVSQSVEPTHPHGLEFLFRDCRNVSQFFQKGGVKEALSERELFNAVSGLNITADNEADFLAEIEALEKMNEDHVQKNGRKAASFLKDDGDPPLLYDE
Method: as §1

MST3 = MST3 (Homo sapiens, UniProt Q9Y6E0)
MST3, sequence (Q9Y6E0 whole entry): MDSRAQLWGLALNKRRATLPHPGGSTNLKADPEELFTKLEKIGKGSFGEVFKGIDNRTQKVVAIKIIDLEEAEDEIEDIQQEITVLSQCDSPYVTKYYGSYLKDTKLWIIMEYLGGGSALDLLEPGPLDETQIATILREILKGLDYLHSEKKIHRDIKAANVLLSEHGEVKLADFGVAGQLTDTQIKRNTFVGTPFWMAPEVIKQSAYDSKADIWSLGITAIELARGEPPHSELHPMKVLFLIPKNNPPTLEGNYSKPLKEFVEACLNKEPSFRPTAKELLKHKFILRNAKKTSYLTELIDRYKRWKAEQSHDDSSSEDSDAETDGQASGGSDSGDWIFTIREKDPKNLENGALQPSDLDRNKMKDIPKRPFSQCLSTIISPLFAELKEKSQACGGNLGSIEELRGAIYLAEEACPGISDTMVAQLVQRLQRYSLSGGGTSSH
Method: as §1

TRKB = TRKB (Homo sapiens, UniProt Q16620)
Method: as §1

TSSK3 = TSSK3 (Homo sapiens, UniProt Q96PN8)
Method: as §1

p38-beta = p38-beta (Homo sapiens, UniProt Q15759)
p38-beta, sequence (Q15759 whole entry): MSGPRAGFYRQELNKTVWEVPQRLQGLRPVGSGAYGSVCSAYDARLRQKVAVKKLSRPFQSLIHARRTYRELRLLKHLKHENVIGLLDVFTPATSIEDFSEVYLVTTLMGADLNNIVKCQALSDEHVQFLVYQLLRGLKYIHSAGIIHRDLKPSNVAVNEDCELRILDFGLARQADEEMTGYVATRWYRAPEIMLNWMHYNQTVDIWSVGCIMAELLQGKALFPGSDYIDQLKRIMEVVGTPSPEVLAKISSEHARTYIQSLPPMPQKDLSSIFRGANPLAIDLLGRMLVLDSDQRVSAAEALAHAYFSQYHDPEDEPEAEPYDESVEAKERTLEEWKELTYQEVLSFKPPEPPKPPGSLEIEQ
Method: as §1

NEK3 = NEK3 (Homo sapiens, UniProt P51956)
NEK3, sequence (P51956 whole entry): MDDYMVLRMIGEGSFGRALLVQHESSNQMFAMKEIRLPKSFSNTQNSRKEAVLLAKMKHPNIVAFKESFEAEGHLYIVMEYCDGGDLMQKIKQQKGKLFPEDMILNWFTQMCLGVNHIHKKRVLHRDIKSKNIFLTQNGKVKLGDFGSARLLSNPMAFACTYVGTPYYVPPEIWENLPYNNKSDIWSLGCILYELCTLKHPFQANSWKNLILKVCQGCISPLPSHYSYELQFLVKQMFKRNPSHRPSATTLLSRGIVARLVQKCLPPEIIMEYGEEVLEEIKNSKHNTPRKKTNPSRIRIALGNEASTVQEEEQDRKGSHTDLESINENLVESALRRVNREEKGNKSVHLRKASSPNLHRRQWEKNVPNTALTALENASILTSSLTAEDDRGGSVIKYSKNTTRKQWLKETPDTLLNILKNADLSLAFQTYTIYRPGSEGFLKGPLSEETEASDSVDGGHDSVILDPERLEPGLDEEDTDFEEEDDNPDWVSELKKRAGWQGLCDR
Method: as §1

Compound `O=C1CCC(N2C(=O)c3cccc(NCCCCCCCCNC(=O)N4CC[C@H](NC5=Nc6cc(F)ccc6N(CC(F)F)c6ccc(Cl)cc65)C4)c3C2=O)C(=O)N1` (stereo partly drawn) [BJG-05-039, (3S)-3-((2-Chloro-5-(2,2-difluoroethyl)-8-fluoro-5H-dibenzo[b,e][1,4]diazepin-11-yl)amino)-N-(8-((2-(2,6-dioxopiperidin-3-yl)-1,3-dioxoisoindolin-4-yl)amino)octyl)pyrrolidine-1-carboxamide] has a remaining binding at 10 µM (GSK3A) of 50%, a remaining binding at 10 µM (KIT-autoinhibited) of 100% and a remaining binding at 10 µM (BRSK2) of 99%. It also gave a remaining binding at 10 µM (JNK1) of 83%, a remaining binding at 10 µM (RAF1) of 97% and a remaining binding at 10 µM (WEE2) of 78%. For the same compound, the remaining binding at 10 µM (PRKCI) was 100%, the remaining binding at 10 µM (EGFR(L858R, T790M)) was 86% and the remaining binding at 10 µM [1] was 100%. It also gave a remaining binding at 10 µM (PAK3) of 100%, a remaining binding at 10 µM (PIK3CA(H1047L)) of 63% and a remaining binding at 10 µM (MKNK2) of 94%. For the same compound, the remaining binding at 10 µM (CDKL5) was 100%, the remaining binding at 10 µM (CAMK2G) was 51% and the remaining binding at 10 µM (ALK(C1156Y)) was 100%. For the same compound, the remaining binding at 10 µM (LZK) was 82%, the remaining binding at 10 µM (FLT3) was 53% and the remaining binding at 10 µM (PLK1) was 82%. It also gave a remaining binding at 10 µM (MRCKB) of 67%, a remaining binding at 10 µM (MAP3K2) of 76% and a remaining binding at 10 µM (EGFR(L858R)) of 74%. For the same compound, the remaining binding at 10 µM (HASPIN) was 90%, the remaining binding at 10 µM [2] was 87% and the remaining binding at 10 µM (FGFR4) was 68%. For the same compound, the remaining binding at 10 µM (PRKG2) was 100%, the remaining binding at 10 µM (RIOK3) was 84% and the remaining binding at 10 µM (MST3) was 52%. For the same compound, the remaining binding at 10 µM (TRKB) was 67%, the remaining binding at 10 µM (TSSK3) was 100% and the remaining binding at 10 µM (p38-beta) was 97%. It also gave a remaining binding at 10 µM (NEK3) of 100%.
